Converted amounts (≈) assume the structure as drawn.
Each compound was assayed on Proteus vulgaris (assay: Antibacterial activity against Proteus vulgaris NCIM 2813 by microdilution method).
Assay type: functional

| Compound | MIC [µM] |
| --- | --- |
| COc1ccc(C2=NN(c3ccccc3)C(c3ccc(SC)cc3)C2)cc1OC (stereo unspecified) | 309 (≈ 125 µg/mL) |
| COc1ccc(C2=NN(c3ccccc3)C(c3ccc(SC)cc3)C2)cc1 (stereo unspecified) | 334 (≈ 125 µg/mL) |
| CSc1ccc(C2CC(c3ccc(C)cc3)=NN2c2ccccc2)cc1 (stereo unspecified) | 349 (≈ 125 µg/mL) |
| CSc1ccc(C2CC(c3cccc(Br)c3)=NN2c2ccccc2)cc1 (stereo unspecified) | 295 (≈ 125 µg/mL) |
| CS(=O)(=O)c1ccc(C2CC(c3ccccc3)=NN2c2ccccc2)cc1 (stereo unspecified) | 332 (≈ 125 µg/mL) |
| CSc1ccc(C2CC(c3ccc(Br)cc3)=NN2c2ccccc2)cc1 (stereo unspecified) | 295 (≈ 125 µg/mL) |
| CSc1ccc(C2CC(c3ccc(Cl)cc3)=NN2c2ccccc2)cc1 (stereo unspecified) | 660 (≈ 250 µg/mL) |
| CSc1ccc(C2CC(c3cccc(N)c3)=NN2c2ccccc2)cc1 (stereo unspecified) | 347 (≈ 125 µg/mL) |

These compounds were tested on Fusarium proliferatum (assay: Antifungal activity against Fusarium proliferatum NCIM 1105 assessed as fungal growth inhibition at 2 mg/ml by microdilution method).
Assay type: functional

| Compound | inhibition at 2000 µg/mL [%] |
| --- | --- |
| COc1ccc(C2=NN(c3ccccc3)C(c3ccc(SC)cc3)C2)cc1OC (stereo unspecified) | 93.2 |
| COc1ccc(C2=NN(c3ccccc3)C(c3ccc(SC)cc3)C2)cc1 (stereo unspecified) | 65.9 |
| CSc1ccc(C2CC(c3ccc(C)cc3)=NN2c2ccccc2)cc1 (stereo unspecified) | 83.8 |
| CSc1ccc(C2CC(c3cccc(Br)c3)=NN2c2ccccc2)cc1 (stereo unspecified) | 90.1 |
| CS(=O)(=O)c1ccc(C2CC(c3ccccc3)=NN2c2ccccc2)cc1 (stereo unspecified) | 97.6 |
| CSc1ccc(C2CC(c3ccc(Br)cc3)=NN2c2ccccc2)cc1 (stereo unspecified) | 34.3 |
| CSc1ccc(C2CC(c3ccc(Cl)cc3)=NN2c2ccccc2)cc1 (stereo unspecified) | 72.9 |
| CSc1ccc(C2CC(c3cccc(N)c3)=NN2c2ccccc2)cc1 (stereo unspecified) | 93.6 |

These compounds were tested on Mycobacterium tuberculosis (assay: Antimycobacterial activity against Mycobacterium tuberculosis H37Rv assessed as reduction in relative light units at 100 ug/ml after 72 hrs by luciferase reporter phage assay).
Assay type: functional
Parameters: scale not given: the % may be the effect or the level left

| Compound | Activity [%] |
| --- | --- |
| COc1ccc(C2=NN(c3ccccc3)C(c3ccc(SC)cc3)C2)cc1OC (stereo unspecified) | 30.3 |
| COc1ccc(C2=NN(c3ccccc3)C(c3ccc(SC)cc3)C2)cc1 (stereo unspecified) | 24.87 |
| CSc1ccc(C2CC(c3ccc(C)cc3)=NN2c2ccccc2)cc1 (stereo unspecified) | 19.26 |
| CSc1ccc(C2CC(c3cccc(Br)c3)=NN2c2ccccc2)cc1 (stereo unspecified) | 20.17 |
| CS(=O)(=O)c1ccc(C2CC(c3ccccc3)=NN2c2ccccc2)cc1 (stereo unspecified) | 50.71 |
| CSc1ccc(C2CC(c3ccc(Br)cc3)=NN2c2ccccc2)cc1 (stereo unspecified) | 18.55 |
| CSc1ccc(C2CC(c3ccc(Cl)cc3)=NN2c2ccccc2)cc1 (stereo unspecified) | 17.43 |
| CSc1ccc(C2CC(c3cccc(N)c3)=NN2c2ccccc2)cc1 (stereo unspecified) | 13.79 |

Each compound was assayed on Escherichia coli (assay: Antibacterial activity against Escherichia coli NCIM 2931 by microdilution method).
Assay type: functional

| Compound | MIC [µM] |
| --- | --- |
| COc1ccc(C2=NN(c3ccccc3)C(c3ccc(SC)cc3)C2)cc1OC (stereo unspecified) | 155 (≈ 62.7 µg/mL) |
| COc1ccc(C2=NN(c3ccccc3)C(c3ccc(SC)cc3)C2)cc1 (stereo unspecified) | 83 (≈ 31.1 µg/mL) |
| CSc1ccc(C2CC(c3ccc(C)cc3)=NN2c2ccccc2)cc1 (stereo unspecified) | 174 (≈ 62.4 µg/mL) |
| CSc1ccc(C2CC(c3cccc(Br)c3)=NN2c2ccccc2)cc1 (stereo unspecified) | 295 (≈ 125 µg/mL) |
| CS(=O)(=O)c1ccc(C2CC(c3ccccc3)=NN2c2ccccc2)cc1 (stereo unspecified) | 166 (≈ 62.5 µg/mL) |
| CSc1ccc(C2CC(c3ccc(Br)cc3)=NN2c2ccccc2)cc1 (stereo unspecified) | 148 (≈ 62.7 µg/mL) |
| CSc1ccc(C2CC(c3ccc(Cl)cc3)=NN2c2ccccc2)cc1 (stereo unspecified) | 82 (≈ 31.1 µg/mL) |
| CSc1ccc(C2CC(c3cccc(N)c3)=NN2c2ccccc2)cc1 (stereo unspecified) | 173 (≈ 62.2 µg/mL) |

Each compound was assayed on Salmonella enterica (assay: Antibacterial activity against Salmonella typhi NCIM 2501 by microdilution method).
Assay type: functional, Salmonella enterica subsp. enterica serovar Typhi

| Compound | MIC [µM] |
| --- | --- |
| COc1ccc(C2=NN(c3ccccc3)C(c3ccc(SC)cc3)C2)cc1OC (stereo unspecified) | 0.309 (≈ 0.125 µg/mL) |
| COc1ccc(C2=NN(c3ccccc3)C(c3ccc(SC)cc3)C2)cc1 (stereo unspecified) | 0.334 (≈ 0.125 µg/mL) |
| CSc1ccc(C2CC(c3ccc(C)cc3)=NN2c2ccccc2)cc1 (stereo unspecified) | 0.349 (≈ 0.125 µg/mL) |
| CSc1ccc(C2CC(c3cccc(Br)c3)=NN2c2ccccc2)cc1 (stereo unspecified) | 0.295 (≈ 0.125 µg/mL) |
| CS(=O)(=O)c1ccc(C2CC(c3ccccc3)=NN2c2ccccc2)cc1 (stereo unspecified) | 0.332 (≈ 0.125 µg/mL) |
| CSc1ccc(C2CC(c3ccc(Br)cc3)=NN2c2ccccc2)cc1 (stereo unspecified) | 0.295 (≈ 0.125 µg/mL) |
| CSc1ccc(C2CC(c3ccc(Cl)cc3)=NN2c2ccccc2)cc1 (stereo unspecified) | 0.33 (≈ 0.125 µg/mL) |
| CSc1ccc(C2CC(c3cccc(N)c3)=NN2c2ccccc2)cc1 (stereo unspecified) | 0.347 (≈ 0.125 µg/mL) |

These compounds were tested on Aspergillus niger (assay: Antifungal activity against Aspergillus niger NCIM 596 assessed as fungal growth inhibition at 2 mg/ml by microdilution method).
Assay type: functional

| Compound | inhibition at 2000 µg/mL [%] |
| --- | --- |
| COc1ccc(C2=NN(c3ccccc3)C(c3ccc(SC)cc3)C2)cc1OC (stereo unspecified) | 9.65 |
| COc1ccc(C2=NN(c3ccccc3)C(c3ccc(SC)cc3)C2)cc1 (stereo unspecified) | 81.1 |
| CSc1ccc(C2CC(c3ccc(C)cc3)=NN2c2ccccc2)cc1 (stereo unspecified) | 93 |
| CSc1ccc(C2CC(c3cccc(Br)c3)=NN2c2ccccc2)cc1 (stereo unspecified) | 64.6 |
| CS(=O)(=O)c1ccc(C2CC(c3ccccc3)=NN2c2ccccc2)cc1 (stereo unspecified) | 47.2 |
| CSc1ccc(C2CC(c3ccc(Br)cc3)=NN2c2ccccc2)cc1 (stereo unspecified) | 88.5 |
| CSc1ccc(C2CC(c3ccc(Cl)cc3)=NN2c2ccccc2)cc1 (stereo unspecified) | 93 |
| CSc1ccc(C2CC(c3cccc(N)c3)=NN2c2ccccc2)cc1 (stereo unspecified) | 84.4 |

Each compound was assayed on Bacillus subtilis (assay: Antibacterial activity against Bacillus subtilis NCIM 2718 by microdilution method).
Assay type: functional

| Compound | MIC [µM] |
| --- | --- |
| COc1ccc(C2=NN(c3ccccc3)C(c3ccc(SC)cc3)C2)cc1OC (stereo unspecified) | 309 (≈ 125 µg/mL) |
| COc1ccc(C2=NN(c3ccccc3)C(c3ccc(SC)cc3)C2)cc1 (stereo unspecified) | 334 (≈ 125 µg/mL) |
| CSc1ccc(C2CC(c3ccc(C)cc3)=NN2c2ccccc2)cc1 (stereo unspecified) | 349 (≈ 125 µg/mL) |
| CSc1ccc(C2CC(c3cccc(Br)c3)=NN2c2ccccc2)cc1 (stereo unspecified) | 295 (≈ 125 µg/mL) |
| CS(=O)(=O)c1ccc(C2CC(c3ccccc3)=NN2c2ccccc2)cc1 (stereo unspecified) | 332 (≈ 125 µg/mL) |
| CSc1ccc(C2CC(c3ccc(Br)cc3)=NN2c2ccccc2)cc1 (stereo unspecified) | 295 (≈ 125 µg/mL) |
| CSc1ccc(C2CC(c3ccc(Cl)cc3)=NN2c2ccccc2)cc1 (stereo unspecified) | 330 (≈ 125 µg/mL) |
| CSc1ccc(C2CC(c3cccc(N)c3)=NN2c2ccccc2)cc1 (stereo unspecified) | 347 (≈ 125 µg/mL) |

The compounds below were run on Staphylococcus aureus (assay: Antibacterial activity against Staphylococcus aureus NCIM 5021 by microdilution method).
Assay type: functional

| Compound | MIC [µM] |
| --- | --- |
| COc1ccc(C2=NN(c3ccccc3)C(c3ccc(SC)cc3)C2)cc1OC (stereo unspecified) | 618 (≈ 250 µg/mL) |
| COc1ccc(C2=NN(c3ccccc3)C(c3ccc(SC)cc3)C2)cc1 (stereo unspecified) | 668 (≈ 250 µg/mL) |
| CSc1ccc(C2CC(c3ccc(C)cc3)=NN2c2ccccc2)cc1 (stereo unspecified) | 697 (≈ 250 µg/mL) |
| CSc1ccc(C2CC(c3cccc(Br)c3)=NN2c2ccccc2)cc1 (stereo unspecified) | 591 (≈ 250 µg/mL) |
| CS(=O)(=O)c1ccc(C2CC(c3ccccc3)=NN2c2ccccc2)cc1 (stereo unspecified) | 664 (≈ 250 µg/mL) |
| CSc1ccc(C2CC(c3ccc(Br)cc3)=NN2c2ccccc2)cc1 (stereo unspecified) | 591 (≈ 250 µg/mL) |
| CSc1ccc(C2CC(c3ccc(Cl)cc3)=NN2c2ccccc2)cc1 (stereo unspecified) | 660 (≈ 250 µg/mL) |
| CSc1ccc(C2CC(c3cccc(N)c3)=NN2c2ccccc2)cc1 (stereo unspecified) | 694 (≈ 249 µg/mL) |

The compounds below were run on Klebsiella aerogenes (assay: Antibacterial activity against Enterobacter aerogenes NCIM 5139 by microdilution method).
Assay type: functional

| Compound | MIC [µM] |
| --- | --- |
| COc1ccc(C2=NN(c3ccccc3)C(c3ccc(SC)cc3)C2)cc1OC (stereo unspecified) | 155 (≈ 62.7 µg/mL) |
| COc1ccc(C2=NN(c3ccccc3)C(c3ccc(SC)cc3)C2)cc1 (stereo unspecified) | 334 (≈ 125 µg/mL) |
| CSc1ccc(C2CC(c3ccc(C)cc3)=NN2c2ccccc2)cc1 (stereo unspecified) | 349 (≈ 125 µg/mL) |
| CSc1ccc(C2CC(c3cccc(Br)c3)=NN2c2ccccc2)cc1 (stereo unspecified) | 295 (≈ 125 µg/mL) |
| CS(=O)(=O)c1ccc(C2CC(c3ccccc3)=NN2c2ccccc2)cc1 (stereo unspecified) | 332 (≈ 125 µg/mL) |
| CSc1ccc(C2CC(c3ccc(Br)cc3)=NN2c2ccccc2)cc1 (stereo unspecified) | 295 (≈ 125 µg/mL) |
| CSc1ccc(C2CC(c3ccc(Cl)cc3)=NN2c2ccccc2)cc1 (stereo unspecified) | 330 (≈ 125 µg/mL) |
| CSc1ccc(C2CC(c3cccc(N)c3)=NN2c2ccccc2)cc1 (stereo unspecified) | 347 (≈ 125 µg/mL) |

What follows are compounds tested on Candida tropicalis (assay: Antifungal activity against Candida tropicalis NCIM 3556 assessed as fungal growth inhibition at 2 mg/ml by microdilution method).
Assay type: functional

| Compound | inhibition at 2000 µg/mL [%] |
| --- | --- |
| COc1ccc(C2=NN(c3ccccc3)C(c3ccc(SC)cc3)C2)cc1OC (stereo unspecified) | 9.12 |
| COc1ccc(C2=NN(c3ccccc3)C(c3ccc(SC)cc3)C2)cc1 (stereo unspecified) | 92.9 |
| CSc1ccc(C2CC(c3ccc(C)cc3)=NN2c2ccccc2)cc1 (stereo unspecified) | 95.3 |
| CSc1ccc(C2CC(c3cccc(Br)c3)=NN2c2ccccc2)cc1 (stereo unspecified) | 65.1 |
| CS(=O)(=O)c1ccc(C2CC(c3ccccc3)=NN2c2ccccc2)cc1 (stereo unspecified) | 30.6 |
| CSc1ccc(C2CC(c3ccc(Br)cc3)=NN2c2ccccc2)cc1 (stereo unspecified) | 88.1 |
| CSc1ccc(C2CC(c3ccc(Cl)cc3)=NN2c2ccccc2)cc1 (stereo unspecified) | 94.4 |
| CSc1ccc(C2CC(c3cccc(N)c3)=NN2c2ccccc2)cc1 (stereo unspecified) | 86.1 |

What follows are compounds tested on Mycobacterium tuberculosis (assay: Antimycobacterial activity against Mycobacterium tuberculosis H37Rv assessed as reduction in relative light units at 50 ug/ml after 72 hrs by luciferase reporter phage assay).
Assay type: functional
Parameters: scale not given: the % may be the effect or the level left

| Compound | Activity [%] |
| --- | --- |
| COc1ccc(C2=NN(c3ccccc3)C(c3ccc(SC)cc3)C2)cc1OC (stereo unspecified) | 32.66 |
| COc1ccc(C2=NN(c3ccccc3)C(c3ccc(SC)cc3)C2)cc1 (stereo unspecified) | 0 |
| CSc1ccc(C2CC(c3ccc(C)cc3)=NN2c2ccccc2)cc1 (stereo unspecified) | 0 |
| CSc1ccc(C2CC(c3cccc(Br)c3)=NN2c2ccccc2)cc1 (stereo unspecified) | 8.55 |
| CS(=O)(=O)c1ccc(C2CC(c3ccccc3)=NN2c2ccccc2)cc1 (stereo unspecified) | 1.7 |
| CSc1ccc(C2CC(c3ccc(Br)cc3)=NN2c2ccccc2)cc1 (stereo unspecified) | 0 |
| CSc1ccc(C2CC(c3ccc(Cl)cc3)=NN2c2ccccc2)cc1 (stereo unspecified) | 0 |
| CSc1ccc(C2CC(c3cccc(N)c3)=NN2c2ccccc2)cc1 (stereo unspecified) | 0 |

What follows are compounds tested on Aspergillus flavus (assay: Antifungal activity against Aspergillus flavus NCIM 594 assessed as fungal growth inhibition at 2 mg/ml by microdilution method).
Assay type: functional

| Compound | inhibition at 2000 µg/mL [%] |
| --- | --- |
| COc1ccc(C2=NN(c3ccccc3)C(c3ccc(SC)cc3)C2)cc1OC (stereo unspecified) | 63.8 |
| COc1ccc(C2=NN(c3ccccc3)C(c3ccc(SC)cc3)C2)cc1 (stereo unspecified) | 48.4 |
| CSc1ccc(C2CC(c3ccc(C)cc3)=NN2c2ccccc2)cc1 (stereo unspecified) | 38.6 |
| CSc1ccc(C2CC(c3cccc(Br)c3)=NN2c2ccccc2)cc1 (stereo unspecified) | 91.4 |
| CS(=O)(=O)c1ccc(C2CC(c3ccccc3)=NN2c2ccccc2)cc1 (stereo unspecified) | 65.8 |
| CSc1ccc(C2CC(c3ccc(Br)cc3)=NN2c2ccccc2)cc1 (stereo unspecified) | 28.2 |
| CSc1ccc(C2CC(c3ccc(Cl)cc3)=NN2c2ccccc2)cc1 (stereo unspecified) | 13.1 |
| CSc1ccc(C2CC(c3cccc(N)c3)=NN2c2ccccc2)cc1 (stereo unspecified) | 25 |
